Measured values from US8399663B2, “Salt of 1,3,5-triazine-2,4,6-triamine derivative” (Astellas Pharma Inc., priority 2009, dated 2013).

Key:
[1] = test system: methamphetamine-induced hyperlocomotion; assay: Methamphetamine-induced hyperlocomotion model (animal model of Schizophrenia); format: in vivo, male ddY mouse; conditions: oral administration to male ddY mice
Procedure: Methamphetamine is a psychostimulant, and is known to cause symptoms that are similar to Schizophrenia by increasing the transmission in the dopaminergic neurons. The abnormal behavior produced when methamphetamine is administered to an animal is generally used as a screening method for a therapeutic drug for Schizophrenia (Oka et al., 1993, J. Pharmacol. Exp. Ther., 264:158-165, herein incorporated by reference). That is, a male ddY mouse was placed in an activity monitoring apparatus, and after 30 min, methamphetamine was administered. Immediately after administering methamphetamine, the mouse was returned to the monitoring apparatus, and the activity for 1 hour from immediately after the return was measured. For the measurement of the activity, a Supermex sensor manufactured by Muromachi Kikai Co., Ltd. was used. A solvent, or a diluted solution obtained by diluting each of the test compounds with a solvent at multiple concentrations was orally administered to mice in a group. As the solvent, a 0.5% aqueous methyl cellulose solution was used. The statistical analysis was carried out between the group administered with the solvent and the group administered with the drug, using a Dunnett's test.

[2] = pKa value of the compound; format: physicochemical

| Structure (SMILES) | methamphetamine-induced hyperlocomotion inhibitory action [1] | pKa [2] |
| --- | --- | --- |
| Fc1ccc(Nc2nc(NCc3ncccn3)nc(Nc3ccccc3)n2)cc1 [compound A, N-(4-fluorophenyl)-N′-phenyl-N″-(pyrimidin-2-ylmethyl)-1,3,5-triazine-2,4,6-triamine] | inhibited the methamphetamine-induced hyperlocomotion | 3.9 |
| Fc1ccc(Nc2nc(NCc3ncccn3)nc(Nc3ccc(F)cc3)n2)cc1 [compound B, N,N′-bis(4-fluorophenyl)-N″-(pyrimidin-2-ylmethyl)-1,3,5-triazine-2,4,6-triamine] | inhibited the methamphetamine-induced hyperlocomotion | – |
